Measurements taken from ChEMBL document CHEMBL6153094, “Rationally designed highly amphipathic antimicrobial peptides demonstrating superior bacterial selectivity relative to the corresponding α-helix peptide” (Eur J Med Chem, 2025).
The source made the active and inactive calls. The rule behind the calls is not given here.

Assays:
Acinetobacter baumannii = assay: Antimicrobial activity against Acinetobacter baumannii ATCC 19606 assessed as inhibition of visible bacterial growth incubated for 18 hrs by broth microdilution method; type: functional
Klebsiella pneumoniae [1] = assay: Antimicrobial activity against Klebsiella pneumoniae ATCC 700603 assessed as inhibition of visible bacterial growth incubated for 18 hrs by broth microdilution method; type: functional
Pseudomonas aeruginosa [2] = assay: Antimicrobial activity against Pseudomonas aeruginosa ATCC 27853 assessed as inhibition of visible bacterial growth incubated for 18 hrs by broth microdilution method; type: functional
Staphylococcus aureus [3] = assay: Antimicrobial activity against Staphylococcus aureus ATCC 25923 assessed as inhibition of visible bacterial growth incubated for 18 hrs by broth-dilution method; type: functional
Staphylococcus aureus [4] = assay: Antimicrobial activity against methicillin-drug resistant Staphylococcus aureus clinical isolate 2 assessed as concentration required to eliminate 90% bacteria incubated for 18 hrs by broth-microdilution method; type: functional
Escherichia coli = assay: Antimicrobial activity against multi-drug resistant Escherichia coli clinical isolate 804 assessed as concentration required to eliminate 90% bacteria incubated for 18 hrs by broth-microdilution method; type: functional
Staphylococcus aureus [5] = assay: Antibacterial activity against Staphylococcus aureus ATCC 25923 assessed as inhibition of bacterial growth at 2 times of MIC incubated for 18 hrs in presence of <2 microg/ml of trypsin by absorbance based assay; type: functional, organism-based
Staphylococcus aureus [6] = assay: Antibacterial activity against Staphylococcus aureus ATCC 25923 assessed as inhibition of bacterial growth at 2 times of MIC incubated for 18 hrs in presence of 2000 microg/ml of chymotrypsin by absorbance based assay; type: functional, organism-based
Pseudomonas aeruginosa [7] = assay: Antibacterial activity against Pseudomonas aeruginosa ATCC 27853 incubated for 18 hrs in presence of MgCl2 by Mueller-Hinton broth based assay; type: functional, organism-based
Staphylococcus aureus [8] = assay: Antibacterial activity against Staphylococcus aureus ATCC 25923 incubated for 18 hrs in presence of MgCl2 by Mueller-Hinton broth based assay; type: functional, organism-based
Pseudomonas aeruginosa [9] = assay: Antibacterial activity against Pseudomonas aeruginosa ATCC 27853 assessed as fold change in MIC incubated for 18 hrs in presence of 2.5% serum by broth microdilution method; type: functional
Staphylococcus aureus [10] = assay: Antibacterial activity against Staphylococcus aureus ATCC 25923 incubated for 18 hrs in presence of 10% serum by broth microdilution method; type: functional, organism-based
Staphylococcus aureus [11] = assay: Antibiofilm activity in Staphylococcus aureus ATCC 25923 assessed as inhibition of biofilm formation at 1/2 times of MIC incubated for 24 hrs by crystal violet staining based analysis relative to control; type: functional
Staphylococcus aureus [12] = assay: Antibiofilm activity in Staphylococcus aureus ATCC 25923 assessed as inhibition of biofilm formation at 1 times of MIC incubated for 24 hrs by crystal violet staining based analysis relative to control; type: functional
Pseudomonas aeruginosa [13] = assay: Resistance fold, ratio of MIC for Pseudomonas aeruginosa ATCC 27853 measured after 20 passages to MIC for Pseudomonas aeruginosa ATCC 27853 measured immediately; type: functional
Staphylococcus aureus [14] = assay: Resistance fold, ratio of MIC for Staphylococcus aureus ATCC 25923 measured after 20 passages in presence of gentamicin to MIC for Staphylococcus aureus ATCC 25923 measured immediately in presence of gentamicin; type: functional
Pseudomonas aeruginosa [15] = assay: Synergistic antimicrobial activity against gentamicin-resistant Pseudomonas aeruginosa ATCC 27853 assessed as fractional inhibitory concentration index incubated for 18 hrs in presence of gentamicin by checkerboard microdilution method; type: functional
Pseudomonas aeruginosa [16] = assay: Bactericidal activity against Pseudomonas aeruginosa ATCC 27853 assessed as bacterial killing measured upto 360 mins by time-kill kinetics assay; type: functional, organism-based
Staphylococcus aureus [17] = assay: Bactericidal activity against Staphylococcus aureus ATCC 25923 assessed as bacterial killing measured upto 360 mins by time-kill kinetics assay; type: functional, organism-based
Pseudomonas aeruginosa [18] = assay: Bactericidal activity against Pseudomonas aeruginosa ATCC 27853 assessed as bacterial eradication at 1 times of MIC measured after 60 mins by time-kill kinetics assay; type: functional, organism-based
Staphylococcus aureus [19] = assay: Bactericidal activity against Staphylococcus aureus ATCC 25923 assessed as bacterial eradication at 2 times of MIC measured after 90 mins by time-kill kinetics assay; type: functional, organism-based
Pseudomonas aeruginosa [20] = assay: Antibacterial activity against Pseudomonas aeruginosa ATCC 27853 assessed as inhibition of bacterial growth compound pretreated with 256 microg/ml of LPS for 1 hrs followed by bacterial addition and measured after 18 hrs by absorbance based assay; type: functional, organism-based
Cell membrane = assay: Disruption of outer membrane integrity in Pseudomonas aeruginosa ATCC 27853 assessed as increase in fluorescence intensity at 2 times of MIC measured for 12 mins by NPN uptake assay; type: subcellular
DNA = assay: Binding affinity to Staphylococcus aureus ATCC 25923 DNA at 2 times of MIC measured after 30 mins by agarose gel electrophoresis; type: nucleic-acid assay
Pseudomonas aeruginosa [21] = assay: Induction of morphological changes in Pseudomonas aeruginosa ATCC 27853 assessed as content leakage at 2 times of MIC incubated for 30 to 120 mins by SEM analysis; type: functional, organism-based; conditions: time 30-120 min
Staphylococcus aureus [22] = assay: Induction of morphological changes in Staphylococcus aureus ATCC 25923 assessed as cell adhesion at 2 times of MIC incubated for 30 to 120 mins by SEM analysis; type: functional, organism-based; conditions: time 30-120 min
Staphylococcus aureus [23] = assay: Induction of morphological changes in Staphylococcus aureus ATCC 25923 assessed as blister formation at 2 times of MIC incubated for 30 to 120 mins by SEM analysis; type: functional, organism-based; conditions: time 30-120 min
[24] = Toxicity in male Balb/c mouse assessed as mortality at 80 mg/kg, ip measured after 7 days relative to control; type: organism-based; conditions: in vivo, time 7 day
Klebsiella pneumoniae [25] = assay: Antibacterial activity against Klebsiella pneumoniae ATCC 700603 infected in male Balb/c mouse model of pneumonia assessed as decrease in decrease in IL-1beta level in lung at 2.5 to 10 mg/kg, ip administered at 4 and 12 hrs post-infected and measured after 24 hrs by ELISA; type: functional, organism-based; conditions: dose 2.5-10 mg/kg, time 20.0 hrs
Klebsiella pneumoniae [26] = assay: Antibacterial activity against Klebsiella pneumoniae ATCC 700603 infected in male Balb/c mouse model of pneumonia assessed as decrease in inflammatory cell infiltration in […] at 2.5 mg/kg, ip administered at 4 and 12 hrs post-infected and measured after 24 hrs by H and E staining based analysis; type: functional, organism-based; conditions: time 20.0 hrs
Staphylococcus aureus [27] = assay: Antibacterial activity against methicillin-resistant Staphylococcus aureus ATCC 33591 infected in male Balb/c mouse model of full thickness skin wound assessed as reduction in bacterial load in skin at 1 mg/ml pre-infected with bacteria for 1 hrs followed by compound administration at 1,24,48 and 72 hrs post infection and measured 60 hrs post infection by agar plate method; type: functional, organism-based; conditions: time 59.0 hrs
Staphylococcus aureus [28] = assay: Antibacterial activity against methicillin-resistant Staphylococcus aureus ATCC 33591 infected in male Balb/c mouse model of full thickness skin wound assessed as reduction in number of inflammatory cells in skin at 1 mg/ml pre-infected with bacteria for 1 hrs followed by compound administration at 1,12 and 36 hrs post infection and measured after 10 days by H and E staining based analysis; type: functional, organism-based; conditions: time 10.0 day

Q: What does the source list for H-RRWFRRWRRWFR-NH2?
A: MIC (Acinetobacter baumannii): 8 µM; MIC (Klebsiella pneumoniae [1]): 4 µM; MIC (Pseudomonas aeruginosa [2]): 2 µM; MIC (Staphylococcus aureus [3]): 2 µM; EC90 (Staphylococcus aureus [4]): 2.86 µM; EC90 (Escherichia coli): 5.42 µM; Activity (Staphylococcus aureus [5]): Active; Activity (Staphylococcus aureus [6]): Not active; Entire Loss Of Activity Observed; Activity (Pseudomonas aeruginosa [7]): Active; Activity (Staphylococcus aureus [8]): Active; fold change (FC) (Pseudomonas aeruginosa [9]): 32; Activity (Staphylococcus aureus [10]): inactive; inhibition (INH) (Staphylococcus aureus [11]): 35%; inhibition (INH) (Staphylococcus aureus [12]): ~50%; fold change (FC) (Pseudomonas aeruginosa [13]): <=2; fold change (FC) (Staphylococcus aureus [14]): <=2; fractional inhibitory concentration index (FICI) (Pseudomonas aeruginosa [15]): 0.5; Activity (Pseudomonas aeruginosa [16]): Dose-dependent-effect; Activity (Staphylococcus aureus [17]): Dose-dependent-effect; Activity (Pseudomonas aeruginosa [18]): Active; Activity (Staphylococcus aureus [19]): Active; Activity (Pseudomonas aeruginosa [20]): Not active; Compound Binds To Lps To Exert Its Activity; Activity (Cell membrane): Active; Activity (DNA): Active; Activity (Pseudomonas aeruginosa [21]): Active; Activity (Staphylococcus aureus [22]): Active; Activity (Staphylococcus aureus [23]): Active; mortality at 168 h [24]: 25%; Activity (Klebsiella pneumoniae [25]): Active; Activity (Klebsiella pneumoniae [26]): Active; Activity (Staphylococcus aureus [27]): Active; Activity (Staphylococcus aureus [28]): Active
